Laboratory results reported in US20060275356A1, “Pharmaceutical compositions for treating or preventing coronary artery disease” (priority 2005, published 2006).
Where two headings read alike, the source gives them in different places.

How the values were obtained:
HepG2 cells = conditions: cited from earlier work
plasma apoA-I levels = experiment: Plasma apoA-I levels after two weeks of PI plus absorption enhancer (western immunoblotting); format: in vivo, Sprague Dawley rats; conditions: 60 mg/kg PI combined with the absorption enhancer (dose per Table 1), rats
Method: Individual absorption enhancers were also incorporated into the 2 g bolus dose (Table 1). […] All animals were maintained on this regime for two weeks, at which time animals were euthanized and blood samples collected by cardiac puncture. Blood samples were collected into EDTA coated tubes, placed on ice, followed by centrifugation at 1500×g for 15 min at 4° C. to separate plasma. Plasma samples were stored at −20° C. until analysis of apoA-I could be performed. Plasma apoA-I levels were determined by western immunoblotting.

HDL-C cholesterol = conditions: 5.5% by weight of rat chow, approximately 4 g/Kg body weight; cited from earlier work
[1] = Effect of bile acids on absorption and transport of 3H-PI to the liver; format: in vivo, Sprague Dawley rats; conditions: 120 mg/kg 3H-PI by gavage with 50 mg/kg bile acid; liver 4 hours post-gavage
Method: Pharmacokinetic studies were performed to determine if specific bile acids increase the absorption and transport of phosphatidylinositol (PI) to the liver. Sprague Dawley rats (300-350 g) were fasted overnight, followed by administration of 120 mg/kg ^3H-PI by gavage. 50 mg/kg of the bile acids deoxycholate or glycocholate were also incorporated into the gavage. Animals were euthanized after 4 hours post-gavage at which time liver samples were harvested. PI was extracted from the liver samples using the acidic Bligh and Dyer extraction method (Bligh, E. G.; Dyer, W. J. Can. J. Biochem. vol. 37: 911-917, 1959 and Honeyman, T. W. et al., Biochem J. vol. 212: 489-498, 1983). Radioactivity present in the organic phase was measured to determine the amount of PI that was transported to the liver.

plasma HDL-C and apoA-I = experiment: Oral PI in conventional formulations: increase in plasma HDL-C and apoA-I; format: in vivo; conditions: oral PI about 5.6 g/day
[2] = two pilot studies, children aged 4-19 years; cited from earlier work

CC(C)c1c(C(=O)Nc2ccccc2)c(-c2ccccc2)c(-c2ccc(F)cc2)n1CC[C@@H](O)C[C@@H](O)CC(=O)O [atorvastatin, reference compound]
inhibition of cholesterol synthesis (HepG2 cells; concentrations between 0.01 to 10 μM): 45-65%

C[C@H](CCC(=O)O)[C@H]1CC[C@H]2[C@@H]3[C@H](O)C[C@@H]4C[C@H](O)CC[C@]4(C)[C@H]3CC[C@]12C [chenodeoxycholate]
increase in plasma apoA-I relative to PI alone (plasma apoA-I levels): 2 fold

C[C@H](CCC(=O)NCC(=O)O)[C@H]1CC[C@H]2[C@@H]3[C@H](O)C[C@@H]4C[C@H](O)CC[C@]4(C)[C@H]3C[C@H](O)[C@]12C [glycocholate]
increase in plasma apoA-I relative to PI alone (plasma apoA-I levels): 6.6 fold

CCCCCCCCCCCC(=O)[O-].[Na+] [sodium laurate]
increase in plasma apoA-I relative to PI alone (plasma apoA-I levels): 3.7 fold

CCCCCCCCCCCCOS(=O)(=O)[O-].[Na+] [sodium lauryl sulfate]
increase in plasma apoA-I relative to PI alone (plasma apoA-I levels): 7.7 fold

Bromelain
increase in plasma apoA-I relative to PI alone (plasma apoA-I levels): 5.4 fold

Phosphatidic acid [Phosphatidic acid (PA)]
increase of HDL-C cholesterol (HDL-C cholesterol): about 2 fold

deoxycholate
increase in plasma apoA-I relative to PI alone (plasma apoA-I levels): 2 fold | increase of transport of PI to the liver [1]: 20%

phosphatidylinositol [PI]
increase in plasma HDL-C (plasma HDL-C and apoA-I): ~20% | increase in plasma apoA-I (plasma HDL-C and apoA-I): ~10% | inhibition of cholesterol synthesis (HepG2 cells; concentration of 11.7 μM): 50%

phosphatidylserine [PS]
children with improved attention, behavior, learning performance and ameliorated negative mood [2]: 15 out of 20
